Measured values as given in PubChem BioAssay (NCI).
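Exposure lasted 48 hours, with cells grown in 96-well plates and compounds tested at five concentrations. GI50 marks 50% less growth. TGI denotes the concentration required for complete inhibition of growth.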

How the values were obtained:
Experiment in all cases: NCI tumour cell line growth inhibition, 48 h
LOX IMVI melanoma = tested on: LOX IMVI melanoma
HL-60(TB) leukemia = tested on: HL-60(TB) leukemia
SW-620 colon = tested on: SW-620 colon
SK-OV-3 ovarian = tested on: SK-OV-3 ovarian
NCI-H226 lung = tested on: NCI-H226 lung
NCI/ADR-RES ovarian = tested on: NCI/ADR-RES ovarian
A549 NSCLC = tested on: A549 NSCLC
RPMI-8226 leukemia = tested on: RPMI-8226 leukemia
UO-31 renal = tested on: UO-31 renal
DU-145 prostate = tested on: DU-145 prostate
MALME-3M melanoma = tested on: MALME-3M melanoma
SF-539 CNS = tested on: SF-539 CNS
HOP-62 NSCLC = tested on: HOP-62 NSCLC
OVCAR-4 ovarian = tested on: OVCAR-4 ovarian
SF-295 CNS = tested on: SF-295 CNS
SK-MEL-28 melanoma = tested on: SK-MEL-28 melanoma
SF-268 CNS = tested on: SF-268 CNS
SK-MEL-2 melanoma = tested on: SK-MEL-2 melanoma
MDA-MB-435 = tested on: MDA-MB-435
RXF 393 renal = tested on: RXF 393 renal
OVCAR-8 ovarian = tested on: OVCAR-8 ovarian
PC-3 prostate = tested on: PC-3 prostate
IGROV1 ovarian = tested on: IGROV1 ovarian
BT-549 breast = tested on: BT-549 breast
EKVX NSCLC = tested on: EKVX NSCLC
HT29 colon = tested on: HT29 colon
SNB-19 CNS = tested on: SNB-19 CNS
SN12C renal = tested on: SN12C renal
OVCAR-3 ovarian = tested on: OVCAR-3 ovarian
UACC-257 melanoma = tested on: UACC-257 melanoma
M14 melanoma = tested on: M14 melanoma
KM12 colon = tested on: KM12 colon
MDA-MB-231 breast = tested on: MDA-MB-231 breast
786-0 renal = tested on: 786-0 renal
HCC-2998 colon = tested on: HCC-2998 colon
CCRF-CEM leukemia = tested on: CCRF-CEM leukemia
A498 renal = tested on: A498 renal
NCI-H23 lung = tested on: NCI-H23 lung
MOLT-4 leukemia = tested on: MOLT-4 leukemia
SR leukemia = tested on: SR leukemia
SNB-75 CNS = tested on: SNB-75 CNS
K-562 leukemia = tested on: K-562 leukemia
ACHN renal = tested on: ACHN renal
OVCAR-5 ovarian = tested on: OVCAR-5 ovarian
HCT-15 colon = tested on: HCT-15 colon
TK-10 renal = tested on: TK-10 renal
CAKI-1 renal = tested on: CAKI-1 renal
T-47D breast = tested on: T-47D breast

Q: Which results are given for COc1cc2c(cc1OCCCOc1cc3c(cc1OC)C(=O)N1CCC[C@H]1CN3)N=C[C@@H]1CCCN1C2=O?
A: TGI (LOX IMVI melanoma): 10800 nM; TGI (HL-60(TB) leukemia): 680 nM; TGI (SW-620 colon): > 32400 nM; TGI (SK-OV-3 ovarian): > 100000 nM; TGI (NCI-H226 lung): 398 nM; TGI (NCI/ADR-RES ovarian): 24800 nM; TGI (A549 NSCLC): > 28100 nM; GI50 (RPMI-8226 leukemia): 156 nM; TGI (RPMI-8226 leukemia): 654 nM; TGI (UO-31 renal): > 100000 nM; TGI (DU-145 prostate): > 37700 nM; TGI (MALME-3M melanoma): 268 nM; TGI (SF-539 CNS): 411 nM; TGI (HOP-62 NSCLC): 892 nM; TGI (OVCAR-4 ovarian): > 36500 nM; TGI (SF-295 CNS): 671 nM; TGI (SK-MEL-28 melanoma): 749 nM; TGI (SF-268 CNS): 473 nM; TGI (SK-MEL-2 melanoma): 365 nM; TGI (MDA-MB-435): 290 nM; TGI (RXF 393 renal): 2550 nM; TGI (OVCAR-8 ovarian): 1280 nM; TGI (PC-3 prostate): 8400 nM; TGI (IGROV1 ovarian): 451 nM; TGI (BT-549 breast): 10300 nM; TGI (EKVX NSCLC): > 49000 nM; TGI (HT29 colon): 13700 nM; TGI (SNB-19 CNS): > 100000 nM; TGI (SN12C renal): > 33000 nM; TGI (OVCAR-3 ovarian): 342 nM; TGI (UACC-257 melanoma): 516 nM; TGI (M14 melanoma): 240 nM; TGI (KM12 colon): 327 nM; TGI (MDA-MB-231 breast): 16600 nM; TGI (786-0 renal): 2180 nM; GI50 (HCC-2998 colon): 172 nM; TGI (HCC-2998 colon): 468 nM; TGI (CCRF-CEM leukemia): > 100000 nM; GI50 (A498 renal): 262 nM; TGI (A498 renal): 668 nM; TGI (NCI-H23 lung): 709 nM; TGI (MOLT-4 leukemia): 148 nM; TGI (SR leukemia): 26.5 nM; TGI (SNB-75 CNS): 2890 nM; TGI (K-562 leukemia): 483 nM; TGI (ACHN renal): 359 nM; TGI (OVCAR-5 ovarian): 1320 nM; TGI (HCT-15 colon): > 24500 nM; TGI (TK-10 renal): 554 nM; TGI (CAKI-1 renal): 1880 nM; TGI (T-47D breast): > 100000 nM
